30 molecules from patent publication US7547716B2, “Sulfonamide derivatives” (Institute of Medicinal Molecular Design, Inc., priority 2001, dated 2009) can be followed below.

For this test, the system named is Jurkat cells. As to the kind of experiment: Jurkat cell proliferation, compound alone or combined with bleomycin, living cells counted by MTS method. The settings on record: enhancement of the decrease in Jurkat cell survival rate by bleomycin 5 μg/ml or 10 μg/ml, 36 hours incubation. It counts as cell-based. On the set-up: key: ++ indicates observation of remarkable enhancement; + indicates moderated enhancement. How it is done: By using the compounds synthesized above, effects on proliferation of Jurkat cells by sole administration and inhibitory effects on cell proliferation by administration in combination with bleomycin were examined. Materials and methods are as follows. Jurkat cells obtained from Dainippon Pharmaceutical Co. Ltd. were inoculated at about 10,000 cells per well in a 96 well culture plate, and incubated in 10% bovine fetal serum (Irvine Scientific) supplemented with RPMI1640(ICN) medium in 5% CO2 incubator at 37° C. […] 36 hours after the incubation, the number of living cells was counted by the MTS method.
More specifically, 20 μl of CellTiter96™ AQueous One Solution (Promega) was added per one well, and after the cells were incubated for additional one hour, an absorbance at 490 nm was measured by using a microplate reader. The same culture added with DMSO as a solvent at final concentration of 0.25% was used as a control. The number of cells in the control was considered as 100% survival rate, and for each compound, survival rates by sole administration or a combined administration were calculated.

Where a name gives a salt, the structure may show the parent alone.

On to “5-amino-N-[(2-fluorophenyl)methyl-1-naphthalenesulfonamide hydrochloride [Compound 9]”, for which the Activity entry is “+”.

As to “5-amino-N-[[[4′-methyl-1,1′-biphenyl]-2-yl]methyl]-1-naphthalenesulfonamide hydrochloride [Compound 23]”, the Activity entry was “+”.

Take `Nc1cccc2c(S(=O)(=O)NCc3cccc4ccccc34)cccc12` [Compound 1, 5-amino-N-[(1-naphthalenyl)methyl]-1-naphthalenesulfonamide hydrochloride]: the Activity entry is listed as “+”.

As for `Nc1cccc2c(S(=O)(=O)NCc3ccccc3Cl)cccc12` [Compound 3, 5-amino-N-[(2-chlorophenyl)methyl]-1-naphthalenesulfonamide hydrochloride], the Activity result is listed as “+”.

As for `Nc1cccc2c(S(=O)(=O)NCc3ccc(Cl)cc3)cccc12` [Compound 5, 5-amino-N-[(4-chlorophenyl)methyl]-1-naphthalenesulfonamide hydrochloride], the Activity entry is listed as “+”.

`Nc1cccc2c(S(=O)(=O)NCc3ccc(Cl)cc3Cl)cccc12` [Compound 6, 5-amino-N-[(2,4-dichlorophenyl)methyl]-1-naphthalenesulfonamide hydrochloride]: the Activity entry was “++”.

With `Nc1cccc2c(S(=O)(=O)NCc3c(F)cccc3F)cccc12` [Compound 12, 5-amino-N-[(2,6-difluorophenyl)methyl]-1-naphthalenesulfonamide hydrochloride], the Activity result was “++”.

In the case of `Nc1cccc2c(S(=O)(=O)NCc3cc(F)cc(F)c3)cccc12` [Compound 14, 5-amino-N-[(3,5-difluorophenyl)methyl]-1-naphthalenesulfonamide hydrochloride], the Activity entry is recorded as “+”.

`Cc1ccccc1CNS(=O)(=O)c1cccc2c(N)cccc12` [Compound 15, 5-amino-N-[(2-methylphenyl)methyl]-1-naphthalenesulfonamide hydrochloride]: the Activity entry is “+”.

For the molecule `CC(C)(C)c1ccc(CNS(=O)(=O)c2cccc3c(N)cccc23)cc1` [Compound 18, 5-amino-N-[[4-(1,1-dimethylethyl)phenyl]methyl]-1-naphthalenesulfonamide hydrochloride], the Activity result was “++”.

For `Nc1cccc2c(S(=O)(=O)NCc3ccccc3C(F)(F)F)cccc12` [Compound 19, 5-amino-N-[[2-(trifluoromethyl)phenyl]methyl]-1-naphthalenesulfonamide hydrochloride], the Activity entry is reported as “++”.

In the case of `Nc1cccc2c(S(=O)(=O)NCc3ccc(C(F)(F)F)cc3)cccc12` [Compound 21, 5-amino-N-[[4-(trifluoromethyl)phenyl]methyl]-1-naphthalenesulfonamide hydrochloride], the Activity result is “++”.

`COc1ccccc1CNS(=O)(=O)c1cccc2c(N)cccc12` [Compound 24, 5-amino-N-[(2-methoxyphenyl)methyl]-1-naphthalenesulfonamide hydrochloride]: the Activity entry is given as “++”.

Regarding `COc1cccc(CNS(=O)(=O)c2cccc3c(N)cccc23)c1` [Compound 25, 5-amino-N-[(3-methoxyphenyl)methyl]-1-naphthalenesulfonamide hydrochloride], the Activity result is “++”.

`COc1ccc(CNS(=O)(=O)c2cccc3c(N)cccc23)cc1` [Compound 26, 5-amino-N-[(4-methoxyphenyl)methyl]-1-naphthalenesulfonamide hydrochloride]: the Activity entry is reported as “+”.

For the molecule `COc1cccc(CNS(=O)(=O)c2cccc3c(N)cccc23)c1OC` [Compound 28, 5-amino-N-[(2,3-dimethoxyphenyl)methyl]-1-naphthalenesulfonamide hydrochloride], the Activity entry is recorded as “++”.

As for `COc1cc(CNS(=O)(=O)c2cccc3c(N)cccc23)cc(OC)c1` [Compound 31, 5-amino-N-[(3,5-dimethoxyphenyl)methyl]-1-naphthalenesulfonamide hydrochloride], the Activity entry is “++”.

For the molecule `Nc1cccc2c(S(=O)(=O)NCc3cccc(OCc4ccccc4)c3)cccc12` [Compound 35, 5-amino-N-[[3-(phenylmethoxy)phenyl]methyl]-1-naphthalenesulfonamide hydrochloride], the Activity entry is reported as “+”.

Regarding `Nc1cccc2c(S(=O)(=O)NCc3ccc(OCc4ccccc4)cc3)cccc12` [Compound 36, 5-amino-N-[[4-(phenylmethoxy)phenyl]methyl]-1-naphthalenesulfonamide hydrochloride], the Activity result is given as “+”.

In the case of `Nc1cccc2c(S(=O)(=O)NCc3cccc(O)c3)cccc12` [Compound 38, 5-amino-N-[(3-hydroxyphenyl)methyl]-1-naphthalenesulfonamide hydrochloride], the Activity entry is reported as “+”.

Regarding `Nc1cccc2c(S(=O)(=O)NCc3cccc([N+](=O)[O-])c3)cccc12` [Compound 41, 5-amino-N-[(3 nitrophenyl)methyl]-1-naphthalenesulfonamide hydrochloride], the Activity entry is given as “++”.

Take `Nc1cccc2c(S(=O)(=O)NCc3ccc([N+](=O)[O-])cc3)cccc12` [Compound 42, 5-amino-N-[(4-nitrophenyl)methyl]-1-naphthalenesulfonamide hydrochloride]: the Activity entry is given as “++”.

Regarding `Nc1ccccc1CNS(=O)(=O)c1cccc2c(N)cccc12` [Compound 43, 5-amino-N-[(2-aminophenyl)methyl]-1-naphthalenesulfonamide dihydrochloride], the Activity entry is reported as “+”.

For `Nc1cccc(CNS(=O)(=O)c2cccc3c(N)cccc23)c1` [Compound 44, 5-amino-N-[(3-aminophenyl)methyl]-1-naphthalenesulfonamide dihydrochloride], the Activity result was “+”.

As for `Nc1cccc2c(S(=O)(=O)NCc3ccc(C(=O)O)cc3)cccc12` [Compound 48, 4-[[[(5-amino-1-naphthalenyl)sulfonyl]-amino]methyl]benzoic acid hydrochloride], the Activity entry is reported as “+”.

As to `Nc1cccc2c(S(=O)(=O)NCc3ccccn3)cccc12` [Compound 53, 5-amino-N-(2-pyridinylmethyl)-1-naphthalenesulfonamide dihydrochloride], the Activity entry is given as “+”.

As for `CC(NS(=O)(=O)c1cccc2c(N)cccc12)c1ccccc1` (stereo not drawn) [Compound 55, 5-amino-N-(1-phenylethyl)-1-naphthalenesulfonamide], the Activity entry is listed as “+”.

As to `CC(NS(=O)(=O)c1cccc2c(N)cccc12)c1cccc2ccccc12` (stereo not drawn) [Compound 56, 5-amino-N-[1-(1-naphthalenyl)ethyl]-1-naphthalenesulfonamide hydrochloride], the Activity result is reported as “+”.

For the molecule `Nc1cccc2c(S(=O)(=O)NC3CCCc4ccccc43)cccc12` (stereo not drawn) [Compound 58, 5-amino-N-(1,2,3,4-tetrahydro-1-naphthalenyl)-1-naphthalenesulfonamide], the Activity entry was “+”.

As for `Nc1cccc2c(S(=O)(=O)Nc3ccccc3)cccc12` [Compound 64, 5-amino-N-phenyl-1-naphthalenesulfonamide hydrochloride], the Activity entry is recorded as “+”.
